# Read-outs that look alike come from different tables or passages of the source.
# Biological target: T1, PD-1/PD-L1 (Homo sapiens, UniProt Q9NZQ7)
# T1 construct: made in house; host or cells: HEK293T
# Test: PD-1/PD-L1 Homogenous Time-Resolved Fluorescence (HTRF) binding assay
# Conditions: PD-L1-His 10 nM, PD-1-Ig 20 nM, read-out: Range or IC50
# How it was run: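 Detection by europium cryptate anti-Ig plus APC anti-His (1 nM and 20 nM final) with HTRF signal. Buffer was dPBS, 0.1% BSA, 0.05% Tween-20.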
# T1 sequence (Q9NZQ7 with tags, fused parts or gaps): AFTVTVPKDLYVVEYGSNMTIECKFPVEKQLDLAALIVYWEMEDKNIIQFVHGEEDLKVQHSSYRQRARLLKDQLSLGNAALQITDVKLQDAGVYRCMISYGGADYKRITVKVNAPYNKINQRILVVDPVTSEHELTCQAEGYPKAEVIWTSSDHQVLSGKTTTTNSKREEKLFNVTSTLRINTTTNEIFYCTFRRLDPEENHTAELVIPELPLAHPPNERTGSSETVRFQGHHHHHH
IC50 (value given as range class),IC50 (numeric IC50),Molecule
0.01 to 0.1 µM,–,"Cc1c(COc2cc(OCc3cncc(C#N)c3)c(C=O)cc2Cl)cccc1-c1ccc2c(c1)OC(CCN1CC[C@H](O)C1)CO2 (mixture of isomers) [Example 1502, 5-((4-chloro-2-formyl-5-((3-(3-(2-((S)-3-hydroxypyrrolidin-1-yl)ethyl)-2,3-dihydrobenzo[b][1,4]dioxin-6-yl)-2-methylbenzyl)oxy)phenoxy)methyl)nicotinonitrile]"
0.01 to 0.1 µM,–,"Cc1c(COc2cc(O)c(CO)cc2Cl)cccc1-c1cccc(OCCCN2CC(N(C)C)C2)c1Cl [Example 2014, 4-chloro-5-((2′-chloro-3′-(3-(3-(dimethylamino)azetidin-1-yl)propoxy)-2-methyl-[1,1′-biphenyl]-3-yl)methoxy)-2-(hydroxymethyl)phenol]"
0.00021 to 0.01 µM,–,"Cc1c(COc2cc(OCc3cncc(C#N)c3)c(CN3CCCC[C@H]3C(=O)O)cc2Cl)cccc1-c1cccc(OCCCN2CC[C@H](F)C2)c1C [Example 2247, (2S)-1-(5-chloro-2-((5-cyanopyridin-3-yl)methoxy)-4-((3′-(3-((S)-3-fluoropyrrolidin-1-yl)propoxy)-2,2′-dimethylbiphenyl-3-yl)methoxy)benzyl)piperidine-2-carboxylic Acid]"
0.00021 to 0.01 µM,–,"Cc1c(COc2cc(OCc3cncc(C#N)c3)c(CN[C@@](C)(CO)C(=O)O)cc2Cl)cccc1-c1cccc(OCCCNC[C@H](O)CO)c1C [Example 2286, (S)-2-((5-chloro-2-((5-cyanopyridin-3-yl)methoxy)-4-((3′-(3-(((S)-2,3-dihydroxypropyl)amino)propoxy)-2,2′-dimethyl-[1,1′-biphenyl]-3-yl)methoxy)benzyl)amino)-3-hydroxy-2-methylpropanoic Acid]"
0.00021 to 0.01 µM,–,"Cc1c(COc2cc(OCc3cncc(C#N)c3)c(CN[C@@](C)(CO)C(=O)O)cc2Cl)cccc1-c1cccc(OCCCN2CC[C@@H](O)C2)c1Cl [Example 1511, (S)-2-((5-chloro-4-((2′-chloro-3′-(3-((R)-3-hydroxypyrrolidin-1-yl)propoxy)-2-methyl-[1,1′-biphenyl]-3-yl)methoxy)-2-((5-cyanopyridin-3-yl)methoxy)benzyl)amino)-3-hydroxy-2-methylpropanoic acid]"
0.00021 to 0.01 µM,–,"Cc1c(OCCCNC[C@H](O)CO)cccc1-c1cccc(COc2cc(OCc3cncc(C#N)c3)c(CN3CCCC[C@H]3C(=O)O)cc2Cl)c1Cl [Example 2303, (S)-1-(5-chloro-4-((2-chloro-3′-(3-(((S)-2,3-dihydroxypropyl)amino)propoxy)-2′-methyl-[1,1′-biphenyl]-3-yl)methoxy)-2-((5-cyanopyridin-3-yl)methoxy)benzyl)piperidine-2-carboxylic Acid]"
0.00021 to 0.01 µM,–,Cc1c(COc2cc(OCc3cncc(C#N)c3)c(CN[C@](C)(CO)C(=O)O)cc2Cl)cccc1-c1cccc(OCCCN2CCC(CO)(C(=O)O)C2)c1C (stereo partly shown) [Example 1051]
0.00021 to 0.01 µM,–,"Cc1c(COc2cc(OCc3cncc(C#N)c3)c(CN[C@](C)(CO)C(=O)O)cc2Cl)cccc1-c1cccc(OCCCN2CC(N(C)C)C2)c1Cl [Example 2013, (R)-2-((5-chloro-4-((2′-chloro-3′-(3-(3-(dimethylamino)azetidin-1-yl)propoxy)-2-methyl-[1,1′-biphenyl]-3-yl)methoxy)-2-((5-cyanopyridin-3-yl)methoxy)benzyl)amino)-3-hydroxy-2-methylpropanoic Acid]"

# The next lines start with the molecule.
Molecule,IC50 (value given as range class),IC50 (numeric IC50)
"COC(=O)C1(O)CCN(CCCOc2cccc(-c3cccc(COc4cc(OCc5cncc(C#N)c5)c(CN5CCC(O)(C(=O)OC)CC5)cc4Cl)c3C)c2C)CC1 [Example 1091, methyl 1-(5-chloro-2-((5-cyanopyridin-3-yl)methoxy)-4-((3′-(3-(4-hydroxy-4-(methoxycarbonyl)piperidin-1-yl)propoxy)-2,2′-dimethyl-[1,1′-biphenyl]-3-yl)methoxy)benzyl)-4-hydroxypiperidine-4-carboxylate]",0.00021 to 0.01 µM,–
"Cc1c(COc2cc(OCc3cncc(S(C)(=O)=O)c3)c(CN[C@@](C)(CO)C(=O)O)cc2Cl)cccc1-c1cccc(OCCCN2CC[C@@H](O)C2)c1 [Example 1024, (S)-2-((5-chloro-4-((3′-(3-((R)-3-hydroxypyrrolidin-1-yl)propoxy)-2-methyl-[1,1′-biphenyl]-3-yl)methoxy)-2-((5-(methylsulfonyl)pyridin-3-yl)methoxy)benzyl)amino)-3-hydroxy-2-methylpropanoic Acid]",0.00021 to 0.01 µM,–
"Cc1c(COc2cc(OCc3cncc(C#N)c3)c(CN(C)C(CO)CO)cc2Cl)cccc1-c1cccc(OCCCN2CC[C@@H](O)C2)c1C [Example 2325, (R)-5-((4-chloro-2-(((1,3-dihydroxypropan-2-yl)(methyl)amino)methyl)-5-((3′-(3-(3-hydroxypyrrolidin-1-yl)propoxy)-2,2′-dimethyl-[1,1′-biphenyl]-3-yl)methoxy)phenoxy)methyl)nicotinonitrile]",0.00021 to 0.01 µM,–
"tert-butyl (S)-3-(((3′-((2-chloro-5-((5-cyanopyridin-3-yl)methoxy)-4-(((1,3-dihydroxypropan-2-yl)amino)methyl)phenoxy)methyl)-2,2′-dimethyl-[1,1′-biphenyl]-3-yl)oxy)methyl)pyrrolidine-1-carboxylate [Example 2322]",0.01 to 0.1 µM,–
"Cc1ccc(OCCCN2CC[C@@H](O)C2)c(C)c1-c1cccc(COc2cc(OCc3cncc(C#N)c3)c(CN[C@@H](CO)C(=O)O)cc2Cl)c1C [Example 3031, (2S)-2-((5-chloro-2-((5-cyanopyridin-3-yl)methoxy)-4-((3′-(3-((R)-3-hydroxypyrrolidin-1-yl)propoxy)-2,2′,6′-trimethyl-[1,1′-biphenyl]-3-yl)methoxy)benzyl)amino)-3-hydroxypropanoic Acid]",0.00021 to 0.01 µM,–
"Cc1c(COc2cc(OCc3cncc(C#N)c3)c(CN3CCCC[C@H]3C(=O)O)cc2Cl)cccc1-c1cccc(OCCCN[C@H](CO)C(C)C)c1C [Example 2238, (2S)-1-(5-chloro-2-((5-cyanopyridin-3-yl)methoxy)-4-((3′-(3-((S)-1-hydroxy-3-methylbutan-2-ylamino)propoxy)-2,2′-dimethylbiphenyl-3-yl)methoxy)benzyl)piperidine-2-carboxylic Acid]",0.00021 to 0.01 µM,–
"Cc1c(COc2cc(OCc3cncc(C#N)c3)c(CN[C@](C)(CO)C(=O)O)cc2Cl)cccc1-c1cccc(OCCCNC(CO)(CO)CO)c1Cl [Example 2040, (R)-2-((5-chloro-4-((2′-chloro-3′-(3-((1,3-dihydroxy-2-(hydroxymethyl)propan-2-yl)amino)propoxy)-2-methyl-[1,1′-biphenyl]-3-yl)methoxy)-2-((5-cyanopyridin-3-yl)methoxy)benzyl)amino)-3-hydroxy-2-methylpropanoic Acid]",0.00021 to 0.01 µM,–
"Cc1c(COc2cc(OCc3cncc(C#N)c3)c(CN3CCCC[C@H]3C(=O)O)cc2Cl)cccc1-c1cccc(OCCCN2CCO[C@@H](CO)C2)c1C [Example 3047, (S)-1-(5-chloro-2-((5-cyanopyridin-3-yl)methoxy)-4-((3′-(3-((R)-2-(hydroxymethyl)morpholino)propoxy)-2,2′-dimethyl-[1,1′-biphenyl]-3-yl)methoxy)benzyl)piperidine-2-carboxylic Acid]",0.00021 to 0.01 µM,–
"Cc1c(COCCN2CC[C@@H](O)C2)cccc1-c1cccc(COc2cc(OCc3cncc(C#N)c3)c(CNC(C)(CO)CO)cc2Cl)c1C [Example 4131, (R)-5-((4-chloro-2-(((1,3-dihydroxy-2-methylpropan-2-yl)amino)methyl)-5-((3′-((2-(3-hydroxypyrrolidin-1-yl)ethoxy)methyl)-2,2′-dimethyl-[1,1′-biphenyl]-3-yl)methoxy)phenoxy)methyl)nicotinonitrile]",0.00021 to 0.01 µM,–
"Cc1c(OCCCN2CC[C@@H](O)C2)cccc1-c1cccc(COc2cc(OCC3CC3)c(CNC(CO)CO)cc2Cl)c1Cl [Example 2319, (R)-2-((5-chloro-4-((2-chloro-3′-(3-(3-hydroxypyrrolidin-1-yl)propoxy)-2′-methyl-[1,1′-biphenyl]-3-yl)methoxy)-2-(cyclopropylmethoxy)benzyl)amino)propane-1,3-diol]",0.00021 to 0.01 µM,–
"Cc1c(COc2cc(OCc3cncc(C#N)c3)c(CN3CCCC[C@H]3C(=O)O)cc2Cl)cccc1-c1cccc(OCCCN2CCN(c3ccccn3)CC2)c1C [Example 2216, (2S)-1-(5-chloro-2-((5-cyanopyridin-3-yl)methoxy)-4-((2,2′-dimethyl-3′-(3-(4-(pyridin-2-yl)piperazin-1-yl)propoxy)biphenyl-3-yl)methoxy)benzyl)piperidine-2-carboxylic Acid]",–,0.03 µM
"Cc1c(COc2cc(OCc3cncc(C#N)c3)c(CN3CCCC[C@H]3C(=O)O)cc2Cl)cccc1-c1cccc(OCCCN2C[C@H](O)C[C@H]2C(=O)O)c1C [Example 2241, (2S)-1-(4-((3′-(3-((2S,4R)-2-carboxy-4-hydroxypyrrolidin-1-yl)propoxy)-2,2′-dimethylbiphenyl-3-yl)methoxy)-5-chloro-2-((5-cyanopyridin-3-yl)methoxy)benzyl)piperidine-2-carboxylic Acid]",0.00021 to 0.01 µM,–
"CC(CO)(CO)NCc1cc(Cl)c(OCc2cccc(-c3cccc(OCCCN4CC[C@@H](O)C4)c3Cl)c2Cl)cc1OCc1cc(C#N)ccc1F [Example 2055, (R)-3-((4-chloro-5-((2,2′-dichloro-3′-(3-(3-hydroxypyrrolidin-1-yl)propoxy)-[1,1′-biphenyl]-3-yl)methoxy)-2-(((1,3-dihydroxy-2-methylpropan-2-yl)amino)methyl)phenoxy)methyl)-4-fluorobenzonitrile]",0.00021 to 0.01 µM,–
"Cc1c(COc2cc(OCc3cncc(C#N)c3)c(CN(C)[C@@H](C)C(=O)O)cc2Cl)cccc1-c1cccc(OCCCN2CC[C@@H](O)C2)c1C [Example 4132, N-(5-chloro-2-((5-cyanopyridin-3-yl)methoxy)-4-((3′-(3 ((R)-3-hydroxypyrrolidin-1-yl)propoxy)-2,2′-dimethyl-[1,1′-biphenyl]-3-yl)methoxy)benzyl)-N-methyl-L-alanine]",0.00021 to 0.01 µM,–

# Reference: patent US10745382B2 (BRISTOL-MYERS SQUIBB COMPANY, priority 2015, dated 2020)
